“Also recorded” adds a separate entry of the source. Like-named read-outs stand apart in the source and are kept apart here. Values belong to the compound of their own block, whether it stands above or below them.
Key:
ABCG2 = biological target: T1, ABCG2 (Homo sapiens, UniProt Q9UNQ0); conditions: Cusatis and Sparreboom, 2008; cited from earlier work
T1 sequence (Q9UNQ0 1-655): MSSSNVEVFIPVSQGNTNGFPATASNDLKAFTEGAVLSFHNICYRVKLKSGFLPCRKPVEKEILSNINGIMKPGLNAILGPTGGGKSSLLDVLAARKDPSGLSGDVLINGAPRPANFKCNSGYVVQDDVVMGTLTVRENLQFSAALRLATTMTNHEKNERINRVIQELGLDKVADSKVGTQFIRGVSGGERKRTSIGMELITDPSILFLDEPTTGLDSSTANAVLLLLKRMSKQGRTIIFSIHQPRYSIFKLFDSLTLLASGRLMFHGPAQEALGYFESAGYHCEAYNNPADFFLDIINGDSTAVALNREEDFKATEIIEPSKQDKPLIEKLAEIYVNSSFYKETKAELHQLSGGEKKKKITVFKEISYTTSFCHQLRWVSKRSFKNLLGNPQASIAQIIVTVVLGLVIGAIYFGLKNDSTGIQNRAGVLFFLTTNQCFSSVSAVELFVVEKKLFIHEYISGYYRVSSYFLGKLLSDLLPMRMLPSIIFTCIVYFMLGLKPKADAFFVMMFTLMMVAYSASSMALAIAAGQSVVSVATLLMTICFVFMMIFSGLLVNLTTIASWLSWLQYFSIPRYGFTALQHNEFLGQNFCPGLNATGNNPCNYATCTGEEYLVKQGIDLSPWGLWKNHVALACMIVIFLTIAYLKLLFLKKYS

[1] = test system: Panc02.13 cells expressing the YAPS6A mutant; test: 3D spheroid growth assay, Panc02.13 cells expressing YAPS6A; format: cell-based, human; conditions: YAP activity increased
[2] = test system: pancreatic cancer cell lines; test: Kinetic cell growth assay, panel of pancreatic cancer cell lines; format: cell-based, human
Experimental: (§1) The effect of gemcitabine on pancreatic cancer cell growth was studied using a kinetic cell growth assay. Pancreatic cancer cells were plated on 96-well plates (Essen ImageLock, Essen Instruments, MI, US) at varying densities (2-4×10^3 for low density or 15-20×10^3 for high density experiments). Small molecule inhibitors at different doses were added 24 hours after plating and cell confluence was monitored with Incucyte Live-Cell Imaging System and software (Essen Instruments). Confluence was observed every hour for 48-144h or until the control (DMSO only) samples reached 100% confluence.
FIG. 20A illustrates the kinetic cell growth assay to determine the effect of gemcitabine in a panel of pancreatic cancer cell lines. Cells are plated at low crowding conditions (10-25% confluence) and 24 hours later exposed to gemcitabine in a dose-dependent manner. They are imaged every 1-3 hours until control (vehicle) treated cells reach 100% confluence. This assay is not confounded by the fact that the time required for each cell line to reach 100% confluence may be very different (as the cell lines have different doubling times). A dose response effect of gemcitabine on cell growth for 16 pancreatic cancer cell lines is shown in FIGS. 20B, 3, 31A-31C and 28, where the range of previous studies is also shown. […] Similar responses to gemcitabine were found in liver cancer cell lines (Huh7 and FOCUS) and untransformed (HEK293) cell lines (FIGS. 3, 31A-31C).
as §1, with “Kinetic Cell growth assay. The” for “The”, “(2-4X103” for “(2-4×10^3”, “15-20X103” for “15-20×10^3”, “Incucyte™” for “Incucyte”

[3] = test system: Panc02.13 cells expressing YAPS6A construct; test: Kinetic cell growth assay, Panc02.13 cells expressing YAPS6A; format: cell-based, human; conditions: YAPS6A construct
Experimental: (§2) Panc02.13 cells were used to express YAPS6A (or vector controls) under sparse and dense cultures. Expression was confirmed by confocal microscopy (data not shown). Suppression of the Hippo pathway by expression of non-phospho, active form of YAP (YAPS6A) sensitized pancreatic cancer cells to gemcitabine and 5-FU (FIGS. 6 and 7). Apoptosis was measured by immunobloting with cleaved caspases 3/7 or PARP. Blots were also stained with anti-β-actin for loading control. The effect of Hippo pathway suppression on gemcitabine and 5-FU senstitization was maintained in 3D spheroid culture (FIG. 8). The effects of eleven cytotoxic drugs on the growth of Panc02.13 cells expressing vector only or YAPS6A construct grown under low or high densities were determined (Table 1).
as §1
Cell lines (Panc02.13, Panc10.05 or Miapaca2) were transfected with YAPS6A constructs (Addgene) using Lipofectamine™ (Invitrogen, Carlsbad, Calif.) following the manufacturer's instructions and 48 hour post-transfection selected in 5-10 μg/ml Blasticidin (InvivoGen, San Diego, Calif.). The clones screened for YAPS6A expression by Western blot. Stable cell lines were maintained in complete medium and 5 μg/ml Blasticidin.
as §1, with “Kinetic Cell growth assay. The” for “The”, “(2-4X103” for “(2-4×10^3”, “15-20X103” for “15-20×10^3”, “Incucyte™” for “Incucyte”

[4] = test system: Panc02.13 cells expressing vector only (02.13-WT); test: Kinetic cell growth assay, Panc02.13 cells expressing vector only; format: cell-based, human
Experimental: as §2, §1
as §1, with “Kinetic Cell growth assay. The” for “The”, “(2-4X103” for “(2-4×10^3”, “15-20X103” for “15-20×10^3”, “Incucyte™” for “Incucyte”

Panc02.13 cells = test: 3D spheroid growth assay, Panc02.13 (GFP/parental) cells; conditions: Hippo-YAP pathway active
[5] = test system: patient-derived xenograft (PDX) models; test: Patient-derived xenograft (PDX) models, tumor growth inhibition; format: in vivo, mouse; conditions: PDX models
From the text: An alternative to an endogenous mouse models for capturing effects of the tumor environment are patient-derived xenograft (PDX) models. […] At the cellular level, PDX models also preserve the intra-tumoral heterogeneity, as well as the molecular characteristics of the original cancer, including copy number variants, single-nucleotide polymorphisms, and gene expression profiles (Choi et al., 2014; DeRose et al., 2011). […] When patient-derived xenograft PDX models were used to assess whether YAP activation sensitizes solid tumors to gemcitabine significant effects were found. The studies were performed in the following manner: Tumor fragments (around 64 mm^3) were implanted into the flanks of recipient mice and tumor dimensions recorded with digital calipers. Once tumor implants reached a volume of approximately 200 mm3, dosing with gemcitabine (or vehicle control) began. At the completion of the study completion, the percent tumor growth inhibition (% TGI) was calculated for gemcitabine (G) and the vehicle control (C) using initial (i) and final (f) tumor measurements by the formula: % TGI=[1−(Gf−Gi)/(Cf−Ci)]x100.
Patient-derived xenograft (PDX) models. PDX models were established by Champions Oncology (Baltimore, Md.) as described previously (Khor et al., 2015). Drug response to 20 PDX models was obtained from Champions TumorGraft® Database (available on the world wide web at database.championsoncology.com/).
Immunohistochemistry. Human primary tumor tissue slides were obtained from Champions Oncology (Baltimore, Md.). Immunohistochemistry using anti YAP1 antibody (Abcam Cat # ab52771) was performed as previously described (Shi et al., 1999). For negative controls, primary antibody was omitted. The intensity of YAP staining was assessed by an independent pathologist using a four-grade scale: “0” is negative. “0.5” is borderline staining with no significance. “1” is weak staining. “1.5” is weak staining with foci of moderate staining. “2” is moderate staining. […] YAP scoring index was calculated based on staining intensity * % of positive target cells.

[6] = Homo sapiens, high density, read-out: High density (EC50, nM) 02.13-YAPS6A
[7] = Homo sapiens, low density, read-out: Low density (EC50, nM) 02.13-YAPS6A
[8] = Homo sapiens, high density, read-out: High density (EC50, nM) 02.13-WT
[9] = Homo sapiens, low density, read-out: Low density (EC50, nM) 02.13-WT

Compound: CC[C@@]1(O)C(=O)OCc2c1cc1n(c2=O)Cc2cc3c(CN(C)C)c(O)ccc3nc2-1 [topotecan]
- Substrate of ABCG2 (ABCG2): substrates of ABCG2
- Efficacy in inhibiting cell growth when the Hippo pathway was inhibited [1]: increased efficacy in inhibiting cell growth

Compound: Nc1nc(Cl)nc2c1ncn2[C@H]1C[C@H](O)[C@@H](CO)O1 [cladribine]
- Substrate of ABCG2 (ABCG2): substrates of ABCG2
- Efficacy in inhibiting cell growth when the Hippo pathway was inhibited [1]: increased efficacy in inhibiting cell growth; also recorded: particularly significant inhibitory activity

Compound: COc1cc([C@@H]2c3cc4c(cc3[C@@H](O[C@@H]3O[C@@H]5CO[C@@H](c6cccs6)O[C@H]5[C@H](O)[C@H]3O)[C@H]3COC(=O)[C@H]23)OCO4)cc(OC)c1O [teniposide]
- Substrate of ABCG2 (ABCG2): substrates of ABCG2
- Efficacy in inhibiting cell growth when the Hippo pathway was inhibited [1]: increased efficacy in inhibiting cell growth; also recorded: particularly significant inhibitory activity

- EC50 [3, 6]: 133 nM
- EC50 [3, 7]: 68 nM
- EC50 [4, 8]: 386 nM
- EC50 [4, 9]: 35 nM
Compound: COc1cccc2c1C(=O)c1c(O)c3c(c(O)c1C2=O)C[C@@](O)(C(=O)CO)C[C@@H]3O[C@H]1C[C@H](N)[C@H](O)[C@H](C)O1 [Doxorubicin]
- Dependence of cellular response on cell crowding ([2]; seven PDAC cell lines, threshold >100 fold difference in EC50): dependent on cell crowding
- Density dependence of efficacy ([2]; seven pancreatic cancer cell lines, sparse and dense conditions): density-dependent
- Efficacy in inhibiting cell growth when the Hippo pathway was not inhibited (Panc02.13 cells): efficacious in inhibiting cell growth
- Efficacy in inhibiting cell growth when the Hippo pathway was inhibited [1]: increased efficacy in inhibiting cell growth

Compound: COc1cccc2c1C(=O)c1c(O)c3c(c(O)c1C2=O)C[C@@](O)(C(=O)CO)C[C@@H]3O[C@H]1C[C@H](N)[C@@H](O)[C@H](C)O1 [epirubicin]
- Substrate of ABCG2 (ABCG2): substrates of ABCG2
- Efficacy in inhibiting cell growth when the Hippo pathway was not inhibited (Panc02.13 cells): efficacious in inhibiting cell growth
- Efficacy in inhibiting cell growth when the Hippo pathway was inhibited [1]: increased efficacy in inhibiting cell growth

Compound: N.N.O=C([O-])C1(C(=O)[O-])CCC1.[Pt+2] [carboplatin]
- % TGI dependence on YAP activity [5]: not affected by YAP activity

Compound: CN(Cc1cnc2nc(N)nc(N)c2n1)c1ccc(C(=O)N[C@@H](CCC(=O)O)C(=O)O)cc1 [methotrexate]
- Substrate of ABCG2 (ABCG2): substrates of ABCG2
- Efficacy in inhibiting cell growth when the Hippo pathway was inhibited [1]: increased efficacy in inhibiting cell growth; also recorded: particularly significant inhibitory activity

Compound: N.N.[Cl][Pt][Cl] [Cisplatin]
- EC50 ([3]; high density, read-out: High density (EC50, nM) 02.13-YAPS6A): > 10000 nM
- EC50 ([3]; low density, read-out: Low density (EC50, nM) 02.13-YAPS6A): > 10000 nM
- EC50 ([4]; high density, read-out: High density (EC50, nM) 02.13-WT): > 10000 nM
- EC50 ([4]; low density, read-out: Low density (EC50, nM) 02.13-WT): > 10000 nM
- % TGI dependence on YAP activity [5]: not affected by YAP activity

- EC50 [3, 6]: 942 nM
- EC50 [3, 7]: 383 nM
- EC50 [4, 8]: 2600 nM
- EC50 [4, 9]: 386 nM
Compound: COc1cc([C@@H]2c3cc4c(cc3[C@@H](O[C@@H]3O[C@@H]5CO[C@@H](C)O[C@H]5[C@H](O)[C@H]3O)[C@H]3COC(=O)[C@H]23)OCO4)cc(OC)c1O [Etoposide]
- Substrate of ABCG2 (ABCG2): substrates of ABCG2
- Efficacy in inhibiting cell growth when the Hippo pathway was inhibited [1]: particularly significant inhibitory activity
- Efficacy in inhibiting cell growth when the Hippo pathway was inhibited ([1]; listed as etopiside): increased efficacy in inhibiting cell growth

Compound: O=C1c2c(O)ccc(O)c2C(=O)c2c(NCCNCCO)ccc(NCCNCCO)c21 [mitoxantrone]
- Substrate of ABCG2 (ABCG2): substrates of ABCG2
- Efficacy in inhibiting cell growth when the Hippo pathway was inhibited [1]: increased efficacy in inhibiting cell growth; also recorded: particularly significant inhibitory activity
